Laboratory results from patent publication US8329704B2, “Substituted pyrazinone derivatives for use in MCH-1 mediated diseases” (Janssen Pharmaceutica, N.V., priority 2005, dated 2012).

target: T1, human MCH-1 receptor (Homo sapiens, UniProt Q99705); experiment: Ca2+ mobilization experiment for the MCH-1 receptor (FLIPR), inhibition of MCH-induced Ca2+ mobilization; assay type: cell-based; conditions: CHO cells stably expressing human MCH-1 receptor, inhibition of MCH-induced Ca2+ response, read-out: MCH-1 pIC50 (converted)
T1 construct: expressed in transfected cells
Procedure: The interaction of the compounds of Formula (I) with MCH-1 receptors was assessed in in vitro transient calcium (Ca^2+) mobilization assays in the fluorimetric imaging plate reader (FLIPR) format (Sullivan et al. 1999, Methods Mol Biol 114:125-133). In general, the natural agonist (MCH) is incubated with cells expressing the MCH-1 receptor, which elicits a concentration-dependent transient mobilization of Ca^2+ from internal stores. The interaction of the test compounds with the receptor is assessed in competition experiments. Various concentrations of the test compound are added to the incubation mixture containing the receptor-expressing cells and a submaximal concentration of MCH. The test compound in proportion to its antagonist potency and its concentration inhibits MCH-induced Ca^2+ mobilization.
Chinese Hamster ovary cells (CHO) stably expressing the human MCH-1 receptor are grown in a 1:1 mixture of Dulbecco's Modified Eagles Medium (DMEM) and HAM's F12 medium including Glutamax™ (Invitrogen), supplemented with 10% heat-inactivated fetal bovine serum and 400 μg/ml geneticin.
Twenty-four hours before the experiment, MCH-1 receptor-expressing CHO cells are seeded in 20 μl (5,000 cells per well) into 384-well black wall, clear bottom microtiter plates (Costar). On the day of the experiment, 20 μl per well calcium assay kit containing 10 mM probenicide (Molecular Devices) is added. Cells are loaded for 90 min at 37° C. and 5% CO2 in a cell culture incubator. After loading, 20 μl of serial dilutions of the test compound are added and cells are further incubated for 20 min at room temperature in the dark. After 20 min, 20 μl of a submaximal MCH concentration is added and changes in intracellular calcium are recorded directly in a FLIPR III apparatus (Molecular devices).
Data from assays in the presence of compound were calculated as a percentage of total Ca^2+-responses measured in the absence of test compound. Inhibition curves, plotting percent of total Ca^2+-responses versus the log value of the concentration of the test compound, were automatically generated, and sigmoidal inhibition curves were fitted using non-linear regression. The pIC50 values of test compounds were derived from individual curves.

T1 sequence (Q99705 whole entry): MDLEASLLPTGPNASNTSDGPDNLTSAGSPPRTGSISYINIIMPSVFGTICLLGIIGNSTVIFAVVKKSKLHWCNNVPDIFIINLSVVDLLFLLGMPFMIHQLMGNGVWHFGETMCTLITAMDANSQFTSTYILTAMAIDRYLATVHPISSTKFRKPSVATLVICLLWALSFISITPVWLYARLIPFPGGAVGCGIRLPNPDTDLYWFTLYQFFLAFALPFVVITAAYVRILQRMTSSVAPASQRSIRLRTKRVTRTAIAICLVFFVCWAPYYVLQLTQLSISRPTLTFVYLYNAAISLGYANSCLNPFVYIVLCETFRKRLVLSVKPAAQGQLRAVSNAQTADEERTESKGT

Compound | IC50 [nM]
COc1cc(-n2ccnc(OCCc3ccccc3)c2=O)ccc1OCCN1CCCC1 [2-06] | 79.4
COc1cc(-n2ccnc(CCOc3ccccc3)c2=O)ccc1OCCN1CCCC1 [2-07] | 79.4
COc1cc(-n2ccnc(CCCOc3ccccc3)c2=O)ccc1OCCN1CCCC1 [2-08] | 158
O=c1c(SCCc2ccccc2)nccn1-c1ccc(OCCN2CCCC2)cc1 [2-10] | 31.6
O=c1c(NCCCOc2ccccc2)nccn1-c1ccc(OCCN2CCCC2)cc1 [2-12] | 100
COc1cc(-n2ccnc(NCCCOc3ccccc3)c2=O)ccc1OCCN1CCCC1 [2-13] | 15.8
COc1cc(-n2ccnc(OCCOc3ccccc3)c2=O)ccc1OCCN1CCCC1 [2-14] | 100
O=c1c(NCCc2ccc(F)cc2)nccn1-c1ccc(OCCN2CCCC2)cc1 [2-15] | 63.1
COc1cc(-n2ccnc(NCCc3ccc(F)cc3)c2=O)ccc1OCCN1CCCC1 [2-16] | 25.1
O=c1c(NCCOc2ccc(F)cc2)nccn1-c1ccc(OCCN2CCCC2)cc1 [2-17] | 2000
COc1cc(-n2ccnc(NCCCOc3ccc(F)cc3)c2=O)ccc1OCCN1CCCC1 [2-18] | 39.8
COc1cc(-n2ccnc(NCCc3ccccc3Br)c2=O)ccc1OCCN1CCCC1 [2-19] | 316
COc1cc(-n2ccnc(NCCc3cccc(Br)c3)c2=O)ccc1OCCN1CCCC1 [2-20] | 31.6
COc1cc(-n2ccnc(NCCc3ccc(Br)cc3)c2=O)ccc1OCCN1CCCC1 [2-21] | 39.8
COc1cc(-n2ccnc(NCCc3ccccc3Cl)c2=O)ccc1OCCN1CCCC1 [2-22] | 100
COc1cc(-n2ccnc(NCCc3cccc(Cl)c3)c2=O)ccc1OCCN1CCCC1 [2-23] | 50.1
COc1cc(-n2ccnc(NCCc3ccc(Cl)cc3)c2=O)ccc1OCCN1CCCC1 [2-24] | 25.1
COc1cc(-n2ccnc(SCCc3cccc(Cl)c3)c2=O)ccc1OCCN1CCCC1 [2-25] | 126
O=c1c(NCCOc2ccccc2Cl)nccn1-c1ccc(OCCN2CCCC2)cc1 [2-27] | 251
COc1cc(-n2ccnc(NCCOc3ccccc3Cl)c2=O)ccc1OCCN1CCCC1 [2-28] | 79.4
COc1cc(-n2ccnc(NCCCOc3ccccc3Cl)c2=O)ccc1OCCN1CCCC1 [2-29] | 63.1
COc1cc(-n2ccnc(NCCOc3cccc(Cl)c3)c2=O)ccc1OCCN1CCCC1 [2-30] | 50.1
COc1cc(-n2ccnc(NCCCOc3cccc(Cl)c3)c2=O)ccc1OCCN1CCCC1 [2-31] | 25.1
COc1cc(-n2ccnc(NCCCOc3ccc(Cl)cc3)c2=O)ccc1OCCN1CCCC1 [2-32] | 63.1
COc1cc(-n2ccnc(NCCOc3ccccc3C)c2=O)ccc1OCCN1CCCC1 [2-33] | 200
COc1cc(-n2ccnc(NCCc3ccc(C(F)(F)F)cc3)c2=O)ccc1OCCN1CCCC1 [2-34] | 100
COc1cccc(CCNc2nccn(-c3ccc(OCCN4CCCC4)c(OC)c3)c2=O)c1 [2-35] | 31.6

Compound | IC50 [nM]
COc1ccc(CCNc2nccn(-c3ccc(OCCN4CCCC4)c(OC)c3)c2=O)cc1 [2-36] | 50.1
COc1cccc(OCCCNc2nccn(-c3ccc(OCCN4CCCC4)c(OC)c3)c2=O)c1 [2-37] | 398
COc1ccc(OCCCNc2nccn(-c3ccc(OCCN4CCCC4)c(OC)c3)c2=O)cc1 [2-38] | 2000
COc1cc(-n2ccnc(NCCc3ccc(Cl)cc3Cl)c2=O)ccc1OCCN1CCCC1 [2-39] | 200
COc1cc(-n2ccnc(NCCOc3ccc(Cl)cc3Cl)c2=O)ccc1OCCN1CCCC1 [2-40] | 200
COc1cc(-n2ccnc(NCCCOc3ccc(Cl)cc3Cl)c2=O)ccc1OCCN1CCCC1 [2-41] | 631
COc1ccc(CCNc2nccn(-c3ccc(OCCN4CCCC4)c(OC)c3)c2=O)cc1Cl [2-42] | 251
COc1cc(-n2ccnc(NCCc3ccc(C(F)(F)F)cc3F)c2=O)ccc1OCCN1CCCC1 [2-43] | 794
COc1cc(-n2ccnc(NCCCOc3cccc(C#N)c3)c2=O)ccc1OCCN1CCCC1 [2-44] | 79.4
CN(C1CCN(c2ccc(-n3ccnc(NCCc4ccccc4)c3=O)cc2)C1)S(C)(=O)=O (stereo not shown) [3-01] | 100
CNC1CCN(c2ccc(-n3ccnc(NCCc4ccccc4)c3=O)cc2)C1 (stereo not shown) [3-02] | 50.1
CC(=O)N(C)C1CCN(c2ccc(-n3ccnc(NCCc4ccccc4)c3=O)cc2)C1 (stereo not shown) [3-03] | 63.1
CC(C)C(=O)N(C)C1CCN(c2ccc(-n3ccnc(NCCc4ccccc4)c3=O)cc2)C1 (stereo not shown) [3-04] | 100
CN(C(=O)OC(C)(C)C)C1CCN(c2ccc(-n3ccnc(NCCc4ccccc4)c3=O)cc2)C1 (stereo not shown) [3-05] | 158
O=c1c(NCCc2ccccc2)nccn1-c1ccc(N2CCNCC2)cc1 [3-06] | 100
CC(C)(C)OC(=O)N1CCN(c2ccc(-n3ccnc(NCCc4ccccc4)c3=O)cc2)CC1 [3-07] | 501
COc1cc(-n2ccnc(NCCc3ccccc3)c2=O)ccc1N1CCC(N)C1 (stereo not shown) [3-08] | 39.8
COc1cc(-n2ccnc(NCCc3ccccc3)c2=O)ccc1N1CCC(NC(C)=O)C1 (stereo not shown) [3-09] | 63.1
COc1cc(-n2ccnc(NCCc3ccccc3)c2=O)ccc1N1CCC(N(C)C(C)=O)C1 (stereo not shown) [3-10] | 79.4
COc1cc(-n2ccnc(NCCc3ccccc3)c2=O)ccc1N1CCN(C)CC1 [3-11] | 39.8
CNC1CCN(c2ccc(-n3ccnc(NCCc4ccccc4)c3=O)cc2OC)C1 (stereo not shown) [3-12] | 63.1
COc1cc(-n2ccnc(NCCc3ccccc3)c2=O)ccc1N1CCC(N(C)C)C1 (stereo not shown) [3-13] | 50.1
CCN(C)C1CCN(c2ccc(-n3ccnc(NCCc4ccccc4)c3=O)cc2OC)C1 (stereo not shown) [3-14] | 50.1
CCCN(C)C1CCN(c2ccc(-n3ccnc(NCCc4ccccc4)c3=O)cc2OC)C1 (stereo not shown) [3-15] | 50.1
COc1cc(-n2ccnc(NCCc3ccccc3)c2=O)ccc1N1CCC(NC2CC2)C1 (stereo not shown) [3-16] | 50.1
COc1cc(-n2ccnc(NCCc3ccccc3)c2=O)ccc1N1CCC(N(C)C2CC2)C1 (stereo not shown) [3-17] | 79.4
COc1cc(-n2ccnc(NCCc3ccccc3)c2=O)ccc1N1CCC(N(C2CC2)C2CC2)C1 (stereo not shown) [3-18] | 158

Compound | IC50 [nM]
COc1cc(-n2ccnc(NCCc3ccccc3)c2=O)ccc1N1CCCN(C)CC1 [3-19] | 126
COc1cc(-n2ccnc(NCCc3ccccc3)c2=O)ccc1N1CCC(N2CCC(O)C2)C1 (stereo not shown) [3-20] | 126
COc1cc(-n2ccnc(NCCc3ccccc3)c2=O)ccc1C=CCN1CCCC1 [3-22] | 31.6
COc1cc(-n2ccnc(NCCc3ccccc3)c2=O)ccc1C=CCN1CCOCC1 [3-23] | 39.8
COc1cc(-n2ccnc(NCCc3ccccc3)c2=O)ccc1NC1CCNC1 (stereo not shown) [3-24] | 200
COc1cc(-n2ccnc(NCCc3ccccc3)c2=O)ccc1NC1CCN(C)C1 (stereo not shown) [3-25] | 63.1
CCCN1CCC(Nc2ccc(-n3ccnc(NCCc4ccccc4)c3=O)cc2OC)C1 (stereo not shown) [3-26] | 39.8
COc1cc(-n2ccnc(NCCc3ccccc3)c2=O)ccc1NC1CC2COCC(C1)N2 (stereo not shown) [3-27] | 79.4
COc1cc(-n2ccnc(NCCc3ccccc3)c2=O)ccc1NCCN1CCCC1 [3-28] | 126
COc1cc(-n2ccnc(NCCc3ccccc3)c2=O)ccc1NCCN1CCOCC1 [3-29] | 63.1
COc1cc(-n2ccnc(NCCc3ccccc3)c2=O)ccc1OC1CCN(C)C1 (stereo not shown) [3-32] | 79.4
COc1cc(-n2ccnc(NCCc3ccccc3)c2=O)ccc1OC1CCN(C2CC2)C1 (stereo not shown) [3-33] | 50.1
COc1cc(-n2ccnc(NCCc3ccccc3)c2=O)ccc1OC[C@H]1CCCN1 [3-34] | 25.1
COc1cc(-n2ccnc(NCCc3ccccc3)c2=O)ccc1OC[C@@H]1CCCN1C [3-35] | 25.1
COc1cc(-n2ccnc(NCCc3ccccc3)c2=O)ccc1OCC1CCCN1C(=O)OC(C)(C)C (stereo not shown) [3-36] | 126
COc1cc(-n2ccnc(NCCc3ccccc3)c2=O)ccc1OCCN(C)CCO [3-37] | 50.1
COc1cc(-n2ccnc(NCCc3ccccc3)c2=O)ccc1OCCNC(C)=O [3-38] | 63.1
CCCC(=O)NCCOc1ccc(-n2ccnc(NCCc3ccccc3)c2=O)cc1OC [3-39] | 63.1
COc1cc(-n2ccnc(NCCc3ccccc3)c2=O)ccc1OCCNC(=O)CN(C)C [3-40] | 79.4
COc1cc(-n2ccnc(NCCc3ccccc3)c2=O)ccc1OCCNC1CC1 [3-41] | 25.1
COc1cc(-n2ccnc(NCCc3ccccc3)c2=O)ccc1OCCN(C)C1CC1 [3-42] | 31.6
COCC(=O)NCCOc1ccc(-n2ccnc(NCCc3ccccc3)c2=O)cc1OC [3-43] | 200
COc1cc(-n2ccnc(NCCc3ccccc3)c2=O)ccc1OCCNC(=O)c1ccncc1 [3-44] | 200
COc1cc(-n2ccnc(NCCc3ccccc3)c2=O)ccc1OCCN1CCC(O)C1 (stereo not shown) [3-45] | 31.6
COc1cc(-n2ccnc(NCCc3ccccc3)c2=O)ccc1OCCN1CC[C@H](F)C1 [3-46] | 50.1
